According to patent US8968807B1, “Use of ethylene diamine metal complexes to deliver highly absorbable metals for animal nutrition” (Zinpro Corporation, priority 2013, dated 2015):

How the values were obtained:
Cobb male broilers = assay: Poultry trial with Cobb male broilers; format: in vivo; conditions: Cobb male broilers from 1 day old; 80 ppm supplemental Zn; Zn-EDA group = 40 ppm Zn from ZnSO4 + 40 ppm Zn from Zn-EDA
Text: Animals were Cobb male broilers. The experiment was started with 1 day old animals. ZnSO4 was used as a comparative example using 80 ppm zinc from ZnSO4. Zn-EDA replaced 40 ppm of the zinc so there was 40 ppm Zn from ZnSO4 and 40 ppm Zn from Zn-EDA and compared to 80 ppm Zn from ZnSO4. Actual broiler integrator diets were used. They contain 500 ftu of phytase and an NSP enzyme (nonstarch polysaccride degrading enzyme). The plane of nutrition is targeted to be at AgriStat's 75th percentile. […] There were 12 replicates per treatment and 21 birds per replicate.

[1] = Sheep bolus test, manganese blood uptake; format: in vivo; conditions: 30 hour
Text: Tests like in Example 19 and 21 were run with MnSO4 in comparison with Mn-EDA of Example 10. At all points Manganese blood uptake of the sheep was at lower levels than other tested ligands. This may be a characteristic of Mn itself.

[2] = sheep, bolus; versus FeSO4; most notably at 30 hours; FIG. 3
Protocol: In the following examples sheep were given a bolus injection like in Example 19 and then blood uptake was measured at various intervals.
The Fe-EDA (Example 9) and the Fe-EDA (Example 16) were tested for iron uptake in the blood in comparison with the bolus injection of FeSO4.

O=S(=O)([O-])[O-].[Zn+2] [ZnSulfate, ZnSO4]
Body Wt. (Cobb male broilers): 2.212 kg
Feed Conversion (Cobb male broilers): 1.531
Mortality (Cobb male broilers): 4.71%

O=S(=O)([O-])[O-].[Mn+2] [MnSO4]
Manganese blood uptake [1]: 24

NCCN.[Cl][Fe][Cl] [Example 16, 1,2 Diaminoethane—iron(II) chloride]
iron uptake in the blood [2]: better at every interval than inorganic iron sulfate

Cl.Cl.NCCN.[Cl][Fe][Cl] [Example 9, 1,2 Diaminoethane dihydrochloride—iron(II) chloride]
iron uptake in the blood [2]: better at every interval than inorganic iron sulfate

1,2 Diaminoethane dihydrochloride—manganese(II) chloride [Example 10]
Manganese blood uptake [1]: 33
